Data taken from patent US20040258754A1, “Compositions for oral administration of camptothecin and its analogs” (priority 2003, published 2004).
Values after ≈ are worked out from the molar mass of the structure shown. Where two headings read alike, the source gives them in different places.

Tests used:
[1] = for Relative Peak Area: 37° C.
[2] = molecular target: human serum albumin (HSA) (Homo sapiens, UniProt P02768); settings: pH 7.4; cited from earlier work
[3] = Loading (uptake) of drugs into Pluronic-PAA microgels; assay type: physicochemical; settings: 1 wt % microgel suspension pH 7.0
Protocol: The beads were used in order to enhance the area of contact between the microgel suspension and drug. The beads were separated into several fractions. One fraction was added to a polypropylene vial containing the microgel suspension (0.5 mL) and the vial was gently shaken in a horizontal position in an environmental chamber at 20 or 37° C. Then the beads were recovered from the suspension by using a magnet. The beads were dried under vacuum and placed into an appropriate solvent (0.5 mL), where the solute was extracted after shaking overnight. The solvent fraction was assayed for the solute concentration using HPLC. The control fraction of loaded beads was subjected to the extraction without equilibration with the microgel suspension. The solute concentrations were measured in triplicate using the HPLC system described above. […] The peak area was integrated and used to calculate camptothecin concentration using standard calibration curves.

[4] = Solubility of camptothecin in formulations with Pluronic P85; assay type: physicochemical; settings: aqueous with cosolvent or surfactant or cyclodextrin, thermodynamic from solid, read-out: Camptothecin concentration (solubility)
Protocol: Calibration. Fluorescence of 0.300 mL samples of camptothecin solutions in methanol containing between 0.00003 and 0.0005 mg/mL, in triplicates on Helma Quarz plate, was measured using Bio-Tek FL600 fluorescence plate reader with excitation filter wavelength/bandwidth 360/40 nm and emission filter 530/25 nm, sensitivity 70. The average fluorescence was fitted to a linear equation and gave: […]
where C—camptothecin concentration [mg/mL].
Solubility. 0.1 mg camptothecin samples, in triplicates, and 1 mL of the respective buffer or carrier solution, were incubated at room temperature with shaking for 1 hour. The samples were then filtered through Acrodisc CR, PTFE Syringe filter, 4 mm diameter, 0.45 μm pore size Gelman part No. 4472. The filtrate was diluted 100 times with methanol, and the final concentration of camptothecin was determined by fluorescence measurement using the above-described calibration.

[5] = cited from earlier work
[6] = CPT-11 in human serum Without Gel, exposure 10 min
[7] = CPT-11 loaded in Pluronic-PAA-EGDMA gel (F127-PAA) in human serum, exposure 1 h

Sequence of human serum albumin (HSA) (P02768 25-609): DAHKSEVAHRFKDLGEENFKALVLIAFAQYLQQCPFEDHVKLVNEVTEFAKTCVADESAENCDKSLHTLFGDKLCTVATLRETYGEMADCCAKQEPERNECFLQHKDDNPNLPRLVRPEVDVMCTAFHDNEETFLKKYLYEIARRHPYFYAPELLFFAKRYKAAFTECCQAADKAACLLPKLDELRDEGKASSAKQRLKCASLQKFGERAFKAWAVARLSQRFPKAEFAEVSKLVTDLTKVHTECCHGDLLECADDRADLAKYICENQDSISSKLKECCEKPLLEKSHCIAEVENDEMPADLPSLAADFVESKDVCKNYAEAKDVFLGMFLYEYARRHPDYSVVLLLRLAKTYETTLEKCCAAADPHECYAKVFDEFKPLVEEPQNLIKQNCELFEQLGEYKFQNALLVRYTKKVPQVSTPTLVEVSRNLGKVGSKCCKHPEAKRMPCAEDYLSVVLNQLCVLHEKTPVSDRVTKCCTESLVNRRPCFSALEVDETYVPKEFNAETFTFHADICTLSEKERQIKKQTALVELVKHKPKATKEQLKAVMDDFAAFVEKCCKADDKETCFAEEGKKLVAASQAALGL

CCc1c2c(nc3ccc(OC(=O)N4CCC(NCCCCC(=O)O)CC4)cc13)-c1cc3c(c(=O)n1C2)COC(=O)[C@]3(O)CC [APC-L]
Relative Peak Area [1, 6]: 0.778 | Relative Peak Area [1, 7]: not detected

CCc1c2c(nc3ccc(OC(=O)N4CCC(N5CCCCC5)CC4)cc13)-c1cc3c(c(=O)n1C2)COC(=O)[C@]3(O)CC [CPT-11, irinotecan]
metabolism in human serum without encapsulation into gels ([1]; male, human, 15 min, 0.013 mg/mL): a substantial portion of CPT-11 was metabolised

CC[C@@]1(O)C(=O)OCc2c1cc1n(c2=O)Cc2cc3ccccc3nc2-1 [Camptothecin]
higher affinity of HSA for the carboxylate form than for the alpha-hydroxy lactone form [2]: 150 fold | Uptake ± S.D. ([3]; F127-based gel, 20° C.): 13.4 ± 1.54 (20° C.) μmol/g gel | Uptake ± S.D. ([3]; F127-based gel, 37° C.): 16.3 ± 1.86 (37° C.) μmol/g gel | Uptake ± S.D. ([3]; L92-based gel, 20° C.): 16.2 ± 1.87 (20° C.) μmol/g gel | Uptake ± S.D. ([3]; L92-based gel, 37° C.): 19.5 ± 2.33 (37° C.) μmol/g gel | solubility at 1 h ([4]; 1% Pluronic P85 in PBS, P85 1% in PBS pH 7.2, room temperature): 3.1 ± 1.5 µg/mL (≈ 8.9 µM) | solubility at 1 h ([4]; 3% Pluronic P85 in PBS, P85 3% in PBS pH 7.2, room temperature): 4.9 ± 1.5 µg/mL (≈ 14.1 µM) | Log P [5]: 0.87

CCc1c2c(nc3ccc(O)cc13)-c1cc3c(c(=O)n1C2)COC(=O)[C@]3(O)CC [SN28-L]
Relative Peak Area [1, 6]: 1.30 | Relative Peak Area [1, 7]: not detected

CCc1c2c(nc3ccc(O)cc13)-c1cc(C(O)(CC)C(=O)O)c(CO)c(=O)n1C2 (centres unmarked) [SN28-c]
Relative Peak Area [1, 6]: 1.18 | Relative Peak Area [1, 7]: not detected

CC(=O)O[C@H]1C(=O)[C@@]2(C)[C@H]([C@H](OC(=O)c3ccccc3)[C@]3(O)C[C@H](OC(=O)[C@H](O)[C@@H](NC(=O)c4ccccc4)c4ccccc4)C(C)=C1C3(C)C)[C@]1(OC(C)=O)CO[C@@H]1C[C@@H]2O [Taxol]
Uptake ± S.D. ([3]; F127-based gel, 20° C.): 2.27 ± 0.90 (20° C.) μmol/g gel | Uptake ± S.D. ([3]; F127-based gel, 37° C.): 6.97 ± 0.87 (37° C.) μmol/g gel | Uptake ± S.D. ([3]; L92-based gel, 20° C.): 3.65 ± 0.43 (20° C.) μmol/g gel | Uptake ± S.D. ([3]; L92-based gel, 37° C.): 7.25 ± 0.74 (37° C.) μmol/g gel

C[C@]12CC[C@@H]3c4ccc(O)cc4CC[C@H]3[C@@H]1CC[C@@H]2O [β-Estradiol]
Log P [5]: 3.86
